Patent US20240391870A1 (Arcturus Therapeutics, Inc., priority 2023, published 2024)

Legend:
[1] = tested on: factor VII; assay: Factor VII knock down evaluation (LNP with FVII siRNA); type: in vivo, Balb/C mice; conditions: plasma FVII after 48 h vs saline control; for FVII KD % 0.01 mpk: 0.01 mpk i.v.; for FVII KD % 0.03 mpk: 0.03 mpk i.v.
Description: Lipid formulations comprising a FVII siRNA further described below were evaluated for their knockdown activity using the protocol of this example. In the FVII evaluation, seven to eight week-old, female Balb/C mice were purchased from Charles River Laboratories (Hollister, CA). The mice were held in a pathogen-free environment and all procedures involving the mice were performed in accordance with guidelines established by the Institutional Animal Care and Use Committee (IACUC). Lipid nanoparticles containing factor VII siRNA were administered intravenously at a dosing volume of 10 mL/kg and two dose levels (0.03 and 0.01 mg/kg). After 48 h, the mice were anesthetized with isoflurane and blood was collected retro-orbitally into Microtainer® tubes coated with 0.109 M sodium citrate buffer (BD Biosciences, San Diego, CA) and processed to plasma. Plasma specimens were tested for factor VII levels immediately or stored at −80° C. for later analysis. Measurement of FVII protein in plasma was determined using the colorimetric Biophen VII assay kit (Aniara Diagnostica, USA). Absorbance was measured at 405 nm and a calibration curve was generated using the serially diluted control plasma to determine levels of factor VII in plasma from treated animals, relative to the saline-treated control animals.

[2] = tested on: hEPO; assay: hEPO mRNA expression evaluation (hEPO-LNPs); type: in vivo, Balb/c mice; conditions: serum hEPO after 6 hr; for EPO exprssn (ng/mL) 0.03 mpk: 0.03 mpk i.v.; for EPO exprssn (ng/mL) 0.1 mpk: 0.1 mpk i.v.
Description: Protocol for hEPO mRNA Expression Evaluation
Lipid formulations comprising a hEPO mRNA below were evaluated for their ability to express hEPO in vivo according to the protocol of this example. All animal experiments were conducted using institutionally-approved protocols (IACUC). In this protocol, female Balb/c mice at least 6-8 weeks of age were purchased from Charles River Laboratory. […] After 6 hr, blood was collected with serum separation tubes, and the serum was isolated by centrifugation. Serum hEPO levels were then measured using an ELISA assay (Human Erythropoietin Quantikine IVD ELISA Kit, R&D Systems, Minneapolis, MD).

[3] = Mouse plasma stability; type: in vitro ADME, CD-1 mouse; conditions: 1 uM lipid
Description: Lipid stock solution was prepared by dissolution of the lipid in isopropanol at the concentration of 5 mg/mL. A requisite volume of the lipid-isopropanol solution was then diluted to 100 μM concentration at a total volume of 1.0 mL with in 50:50 (v/v) ethanol/water. Ten microliters of this 100 μM solution was spiked into 1.0 mL of mouse plasma (BioIVT, Cat. No.: MSE00PLNHUNN, CD-1 mouse, anticoagulant: sodium heparin, not filtered) that was pre-warmed to 37° C. and was stirred at 50 rpm with a magnetic stir bar. The starting concentration of lipids in plasma was thus 1 μM. At time points 0, 15, 30, 45, 60 and 120 min, 0.1 mL of the plasma was withdrawn from the reaction mixture and the protein was precipitated by adding 0.9 mL of ice-cold 4:1 (v/v) acetonitrile/methanol with 1 μg/mL of a selected internal standard lipid added. After filtration through a 0.45 micron 96-well filtering plate, the filtrates were analyzed by LC-MS (Thermo Fisher's Vanquish UHPLC—LTQ XL linear ion trap Mass Spectrometer); Waters XBridge BEH Shield RP18 2.5 micron (2.1×100 mm) column with its matching guard column. Mobile phase A was 0.1% formic acid in water, and mobile phase B was 0.1% formic acid in 1:1 (v/v) acetonitrile/methanol. Flow rate was 0.5 ml/min. Elution gradient was: Time 0-1 min: 10% B; 1-6 min: 10%-95% B; 6-8.5 min: 95% B; 8.5-9 min: 95%-10% B; 9-10 min: 10% B. Mass spectrometry was in positive scanning mode from 600-1100 m/z. The peak of the molecular ion of the lipids was integrated in the extracted ion chromatography (XIC) using Xcalibur software (Thermo Fisher). The relative peak area compared to T=0, after normalization by the peak area of the internal standard, was used as the percentage of the lipid remaining at each time point. T1/2 values were calculated using the first-order decay model.

[4] = Measured pKa in the indicated formulation; conditions: for pKa: EPO: measured in EPO formulation; for pKa: FVII: measured in FVII formulation
Description: Measured pKa values were determined based on the pH measured in the indicated formulation (i.e., EPO or FVII formulation).

[5] = In vivo biodegradability assay (lipid in liver); conditions: mouse liver, 48 h
Description: In vivo biodegradability assay was performed to assess the biodegradability of lipids in the LNP. Briefly, mice were injected with either 0.1 or 0.03 mg/Kg dose and after 24 or 48 hours mice livers were collected. To measure the concentration of lipids in the mouse liver, liver samples were homogenized in appropriate buffer in 1-10 dilution and mixed with the same amount of stabilized plasma. The samples were then mixed with organic solvents spiked with internal standard to precipitate proteins. After centrifugation, supernatant was diluted further with organic solvent before sample analysis by LC-MS. In LC-MS analysis, positive electrospray ionization was used, and multiple reaction monitoring (MRM) parameters were set up to specifically target the lipid analyte and internal standard. Calibration standards were prepared in stabilized plasma and mixed with same amount of homogenization buffer before protein precipitation. Quality control samples with known amounts of lipid was prepared in blank liver homogenate to monitor the precision and accuracy of the assay.

Row | Compound | FVII KD % 0.01 mpk ([1]; Table 1) | FVII KD % 0.03 mpk ([1]; Table 1) | FVII KD % 0.01 mpk ([1]; Table 2) | FVII KD % 0.03 mpk ([1]; Table 2) | EPO exprssn (ng/mL) 0.03 mpk ([2]; Table 1) | EPO exprssn (ng/mL) 0.1 mpk ([2]; Table 1) | EPO exprssn (ng/mL) 0.1 mpk ([2]; Table 2) | Percent remaining in mouse plasma after 2 h ([3]; Table 2, mouse plasma 37 C) | pKa ([4]; EPO formulation) | pKa ([4]; FVII formulation) | pKa: EPO ([4]; Table 1) | pKa: FVII ([4]; Table 2) | In vivo degradability (ng/tissue) at 48h 0.03 mpk ([5]; Table 1) | In vivo degradability (ng/tissue) at 48h 0.1 mpk ([5]; Table 1) | In vivo degradability (ng/tissue) at 48h 0.03 mpk ([5]; Table 2) | In vivo degradability (ng/tissue) at 48h 0.1 mpk ([5]; Table 2) | Percent remaining in mouse plasma after 2 h ([3]; Table 1, mouse plasma 37 C) | pKa: EPO ([4]; Table 2) | EPO exprssn (ng/mL) 0.03 mpk ([2]; Table 2)
1 | CC(CC1CCCCC1)C(=O)OCC(COC(=O)C(C)CC1CCCCC1)OC(=O)CCCN(CCCC(=O)OC(COC(=O)C(C)CC1CCCCC1)COC(=O)C(C)CC1CCCCC1)C(=O)SCCCN(C)C (stereo not shown) [LIPID 17, ((4,4′-((((3-(Dimethylamino)propyl)thio)carbonyl)azanediyl)bis(butanoyl))bis(oxy))bis(propane-2,1,3-triyl)tetrakis(3-cyclohexyl-2-methylpropanoate)] | 55% | 81% | 55% | 81% | 1082 ng/mL | 1555 ng/mL | 1082 ng/mL | 100% | 6.35 | 6.35 | (6.35/ | (6.35/6.35) | BLOQ | BLOQ | BLOQ | BLOQ |  |  | 
2 | CC1CCC(CC(=O)OCC(COC(=O)CC2CCC(C)CC2)OC(=O)CCCN(CCCC(=O)OC(COC(=O)CC2CCC(C)CC2)COC(=O)CC2CCC(C)CC2)C(=O)SCCCN(C)C)CC1 (stereo not shown) [LIPID 15, ((4,4′-((((3-(Dimethylamino)propyl)thio)carbonyl)azanediyl)bis(butanoyl))bis(oxy))bis(propane-2,1,3-triyl)tetrakis(2-(4-methylcyclohexyl)acetate)] |  |  | 66.8% | 89.7% |  |  | 1899 ng/mL | 100% | 6.57 | 6.45 |  | 6.45 | <340 ng/tissue | <340 ng/tissue | <340 ng/tissue | <340 ng/tissue | 256% | 6.57 | 
3 | CCCCCCCCC(=O)OCC(COC(=O)CCCCCCCC)OC(=O)CCN(CCC(=O)OC(COC(=O)CCCCCCCC)COC(=O)CCCCCCCC)C(=O)SCCCN(C)C [LIPID 13] | 60% | 87% | 60% | 87% |  |  | 1488.1 ng/mL | 74% | 6.4 | 6.61 |  | 6.61 | <340 ng/tissue | <340 ng/tissue | <340 ng/tissue | <340 ng/tissue | 74% | 6.40 | 
4 | CCCCCCCCC(=O)OCC(COC(=O)CCCCCCCC)OC(=O)CCCN(CCCC(=O)OC(COC(=O)CCCCCCCC)COC(=O)CCCCCCCC)C(=O)SCCCN(C)C [LIPID 1, ((4,4′-((((3-(Dimethylamino)propyl)thio)carbonyl)azanediyl)bis(butanoyl))bis(oxy))bis(propane-2,1,3-triyl)tetranonanoate] | 84% | 100% | 84% | 100% | 432 ng/mL | 1413 ng/mL | 1413 ng/mL | 14% | 6.4 | 6.64 |  | 6.64 | BLOQ | BLOQ | BLOQ | BLOQ | 14% | 6.4 | 432 ng/mL
5 | CCCCCCCCC(=O)OCC(COC(=O)CCCCCCCC)OC(=O)CN(CC(=O)OC(COC(=O)CCCCCCCC)COC(=O)CCCCCCCC)C(=O)SCCCN(C)C [LIPID 8, ((2,2′-((((3-(Dimethylamino)propyl)thio)carbonyl)azanediyl)bis(acetyl))bis(oxy))bis(propane-2,1,3-triyl)tetranonanoate] |  |  |  |  | 169 ng/mL | 701 ng/mL | 701 ng/mL | 81% | 6.5 |  |  |  | BLOQ | BLOQ | BLOQ | BLOQ | 81% | (6.50/ND) | 169 ng/mL
6 | CCCCCCCCC(=O)OCC(COC(=O)CCCCCCCC)OC(=O)CCC(CCC(=O)OC(COC(=O)CCCCCCCC)COC(=O)CCCCCCCC)OC(=O)CCCN(C)C [LIPID 5, bis(1,3-bis(Nonanoyloxy)propan-2-yl) 4-((4-(dimethylamino)butanoyl)oxy)heptanedioate] | 90% | 62% | 90% | 62% | 87 ng/mL | 533 ng/mL | 533 ng/mL | 40% | 6.37 | 6.54 |  | 6.54 | BLOQ | BLOQ | BLOQ | BLOQ | 40% | 6.37 | 87 ng/mL
7 | CCCCCC(C)(C)C(=O)OCC(COC(=O)C(C)(C)CCCCC)OC(=O)CCCN(CCCC(=O)OC(COC(=O)C(C)(C)CCCCC)COC(=O)C(C)(C)CCCCC)C(=O)SCCCN(C)C [LIPID 19, ((4,4′-((((3-(Dimethylamino)propyl)thio)carbonyl)-azanediyl)bis(butanoyl))bis(oxy))bis(propane-2,1,3-triyl)tetrakis(2,2-dimethylheptanoate)] |  |  |  |  |  |  | 958 ng/mL | 100% | 6.27 |  |  |  | <340 ng/tissue | 847 ng/tissue | <340 ng/tissue | 847 ng/tissue |  | (6.27/ND) | 
